Earlier results, collected in patent US8729108B2, “Waterborne topical compositions for the delivery of active ingredients such as azelaic acid” (priority 2008, dated 2014).

O=C(O)CCCCCCCC(=O)O [Azelaic acid, nonanedioic acid]
solubility in cosmetic oils (cosmetic oils): little or no solubility | maximum azelaic acid content of an aqueous solution (water): about 0.24 % by weight (w/w)
